Measurements: PMC10746543, “Design principles for cyclin K molecular glue degraders” (Nature Chemical Biology, 2023)
Values joined by “and” are separate entries in the source; they are usually repeats but may differ in a detail not shown here. Equal values may be shown once. Read-outs that look alike come from different tables or passages of the source.

What was measured:
[1] = biological target: T1, CDK9–cyclin T (Homo sapiens, UniProt P50750); experiment: Lanthascreen kinase binding assay, CDK9; settings: for Lanthascreen TR-FRET signal (raw ratio), sheet CDK9: first titration set (r1), duplicates
T1 construct: purchased Thermo Fisher
T1 sequence (P50750 whole entry): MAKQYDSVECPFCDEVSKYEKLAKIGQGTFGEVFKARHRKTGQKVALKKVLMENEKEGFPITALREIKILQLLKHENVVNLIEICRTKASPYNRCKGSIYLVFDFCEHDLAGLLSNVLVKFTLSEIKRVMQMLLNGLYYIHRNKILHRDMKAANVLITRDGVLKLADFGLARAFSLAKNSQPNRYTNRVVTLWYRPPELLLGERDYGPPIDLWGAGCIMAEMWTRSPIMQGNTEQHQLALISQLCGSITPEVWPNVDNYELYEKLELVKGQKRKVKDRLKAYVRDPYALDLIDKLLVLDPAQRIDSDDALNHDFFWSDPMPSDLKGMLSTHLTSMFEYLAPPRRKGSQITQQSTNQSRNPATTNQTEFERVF
T1 sequence (O60563 whole entry partner): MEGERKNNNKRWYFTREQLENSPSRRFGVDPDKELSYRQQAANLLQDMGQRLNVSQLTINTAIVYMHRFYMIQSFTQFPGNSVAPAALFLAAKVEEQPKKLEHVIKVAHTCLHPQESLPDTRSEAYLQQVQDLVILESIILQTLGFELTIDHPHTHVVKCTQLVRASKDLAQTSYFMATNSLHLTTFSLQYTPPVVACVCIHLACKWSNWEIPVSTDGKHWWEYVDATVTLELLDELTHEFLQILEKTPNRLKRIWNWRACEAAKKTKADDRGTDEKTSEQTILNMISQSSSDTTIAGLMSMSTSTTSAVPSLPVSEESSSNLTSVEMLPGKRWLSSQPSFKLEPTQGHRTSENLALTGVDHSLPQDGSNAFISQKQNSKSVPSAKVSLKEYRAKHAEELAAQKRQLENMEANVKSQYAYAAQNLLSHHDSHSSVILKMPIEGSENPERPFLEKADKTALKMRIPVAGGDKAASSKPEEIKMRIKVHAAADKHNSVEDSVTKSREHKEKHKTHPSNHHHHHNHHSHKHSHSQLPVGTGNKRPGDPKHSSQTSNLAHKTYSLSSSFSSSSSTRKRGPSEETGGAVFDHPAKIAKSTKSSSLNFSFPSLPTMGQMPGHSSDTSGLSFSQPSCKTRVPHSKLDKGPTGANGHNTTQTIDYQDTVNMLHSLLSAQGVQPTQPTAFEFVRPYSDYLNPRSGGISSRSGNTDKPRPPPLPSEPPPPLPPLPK
Procedure: (§1) Lanthascreen experiments were performed using commercially available reagents (Thermo Fisher) and according to the manufacturer’s instructions.

[2] = biological target: T2, CDK12–cyclin K and DDB1 (Homo sapiens, UniProt Q16531+Q9NYV4, K965R); experiment: TR-FRET ternary complex formation assay (compound titration); assay type: binding
T2 construct: His6–CDK12 (a.a. 713–1,052); full-length or beta-propeller B domain deletion (ΔBPB: a.a. 396–705 deleted) constructs of His6–DDB1ΔBPB, StrepII–Avi–DDB1, or His6–Spy–DDB1; made in house; host or cells: Trichoplusia ni High Five insect cells (baculovirus)
T2 sequence (Q9NYV4 713-1052 K965R): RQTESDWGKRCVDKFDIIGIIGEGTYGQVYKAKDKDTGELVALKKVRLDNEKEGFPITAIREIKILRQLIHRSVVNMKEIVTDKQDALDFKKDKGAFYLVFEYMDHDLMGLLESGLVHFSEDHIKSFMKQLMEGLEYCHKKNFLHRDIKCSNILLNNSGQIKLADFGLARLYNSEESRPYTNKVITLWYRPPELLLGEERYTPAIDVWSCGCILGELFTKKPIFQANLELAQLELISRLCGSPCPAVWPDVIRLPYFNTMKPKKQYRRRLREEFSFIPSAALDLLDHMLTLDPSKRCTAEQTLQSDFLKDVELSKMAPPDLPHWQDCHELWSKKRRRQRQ
T2 sequence (O75909 1-267 partner): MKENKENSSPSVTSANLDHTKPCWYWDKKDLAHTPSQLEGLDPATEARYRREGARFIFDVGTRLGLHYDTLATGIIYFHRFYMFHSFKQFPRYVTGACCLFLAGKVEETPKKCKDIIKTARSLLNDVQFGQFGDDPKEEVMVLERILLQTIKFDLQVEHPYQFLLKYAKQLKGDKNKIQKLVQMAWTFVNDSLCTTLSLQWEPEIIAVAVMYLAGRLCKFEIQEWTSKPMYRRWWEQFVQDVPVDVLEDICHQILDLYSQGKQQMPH
T2 sequence (Q16531 whole entry): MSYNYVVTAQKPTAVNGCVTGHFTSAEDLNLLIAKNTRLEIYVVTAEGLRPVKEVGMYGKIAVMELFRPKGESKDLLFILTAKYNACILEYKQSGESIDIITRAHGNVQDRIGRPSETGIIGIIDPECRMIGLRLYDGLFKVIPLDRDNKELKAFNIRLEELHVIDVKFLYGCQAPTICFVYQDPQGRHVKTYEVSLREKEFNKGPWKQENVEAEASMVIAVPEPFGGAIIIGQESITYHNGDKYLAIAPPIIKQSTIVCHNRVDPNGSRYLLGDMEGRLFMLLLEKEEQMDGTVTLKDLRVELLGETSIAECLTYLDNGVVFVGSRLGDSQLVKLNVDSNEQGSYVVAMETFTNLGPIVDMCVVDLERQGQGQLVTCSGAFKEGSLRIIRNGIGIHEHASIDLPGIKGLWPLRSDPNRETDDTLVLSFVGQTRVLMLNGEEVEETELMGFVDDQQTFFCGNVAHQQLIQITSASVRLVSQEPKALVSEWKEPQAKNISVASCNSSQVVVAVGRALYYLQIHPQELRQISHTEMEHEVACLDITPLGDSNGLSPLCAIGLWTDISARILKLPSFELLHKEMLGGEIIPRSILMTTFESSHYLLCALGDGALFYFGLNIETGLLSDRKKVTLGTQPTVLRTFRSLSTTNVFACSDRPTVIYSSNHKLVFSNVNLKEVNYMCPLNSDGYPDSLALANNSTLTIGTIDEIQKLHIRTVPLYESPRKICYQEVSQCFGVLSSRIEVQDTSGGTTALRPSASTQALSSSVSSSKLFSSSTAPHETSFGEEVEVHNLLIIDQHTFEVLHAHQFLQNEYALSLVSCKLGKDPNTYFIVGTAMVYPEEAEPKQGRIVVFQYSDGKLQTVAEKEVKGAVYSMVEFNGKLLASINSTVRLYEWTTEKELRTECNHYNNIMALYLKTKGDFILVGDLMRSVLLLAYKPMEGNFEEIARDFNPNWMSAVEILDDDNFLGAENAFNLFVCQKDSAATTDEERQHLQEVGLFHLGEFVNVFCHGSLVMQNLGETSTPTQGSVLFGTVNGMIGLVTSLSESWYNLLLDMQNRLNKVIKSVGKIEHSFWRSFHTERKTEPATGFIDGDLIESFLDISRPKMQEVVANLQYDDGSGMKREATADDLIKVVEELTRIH
Method in brief: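 Background fluorescence is reduced by reading 70 μs after excitation, and complex formation is followed as the 520:490 nm fluorescence ratio.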

[3] = biological target: CDK12–cyclin K (Homo sapiens, UniProt Q9NYV4); experiment: Lanthascreen kinase binding assay, CDK12; settings: for Lanthascreen raw signal, sheet CDK12: series r1, duplicates
CDK12–cyclin K, sequence (Q9NYV4 713-1052): as the sequence (Q9NYV4 713-1052 K965R) above, with R253K counted along it
CDK12–cyclin K, sequence (O75909 1-267 partner limits assumed): as the sequence (O75909 1-267 partner) above
Procedure: as §1

[4] = tested on: HEK293T cells; experiment: Drug sensitivity assay (CellTiter-Glo viability) with or without MLN4924 pretreatment; assay type: cell-based, human; settings: Supplementary Table 2
Method in brief: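 First, cells (HEK293T–Cas9, 0.15 × 10^6 ml^−1) are exposed to DMSO or 100 nM MLN4924. Next, drugs follow at 2 h. Finally, CellTiter-Glo is read at day 3 and normalised to DMSO.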

[5] = tested on: cyclin K–eGFP degradation reporter; experiment: Cyclin K reporter stability analysis (dual-color cyclin K–eGFP reporter); assay type: cell-based, human; settings: Supplementary Table 2; HEK293T cycK-eGFP reporter, 5 h; read-out: Cellular assays DC50
Method in brief: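 HEK293T–Cas9 cells carrying the cyclin K–eGFP reporter were seeded at 1 × 10^6 ml^−1 and exposed to drug or DMSO for 5 h. Flow cytometry gave geometric means of eGFP and mCherry in round, mCherry-positive cells. The eGFP/mCherry ratio was normalized to the mean of three DMSO controls.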

[6] = biological target: T3, CDK2–cyclin A (Homo sapiens, UniProt P24941); experiment: Lanthascreen kinase binding assay, CDK2; settings: for Lanthascreen signal, sheet CDK2: raw replicates, experiment r1-r11
T3 construct: purchased Thermo Fisher
Procedure: as §1

O=C(CCn1cnc2ccccc2c1=O)Nc1ccc(Br)cn1 [Z7]
IC50 ([1]; Supplementary Table 2, read-out: Lanthascreen IC50 [nM] CDK9): 873 nM
Lanthascreen TR-FRET signal (raw ratio), sheet CDK9 ([1]; compound 1.02544 nM): 0.01205 and 0.01344
Lanthascreen TR-FRET signal (raw ratio), sheet CDK9 ([1]; compound 3.15521 nM): 0.01275 and 0.01665
Lanthascreen TR-FRET signal (raw ratio), sheet CDK9 ([1]; compound 9.46563 nM): 0.01222 and 0.01758
Lanthascreen TR-FRET signal (raw ratio), sheet CDK9 ([1]; compound 31.5521 nM): 0.01391 and 0.02091
Lanthascreen TR-FRET signal (raw ratio), sheet CDK9 ([1]; compound 99.3891 nM): 0.01184 and 0.01953
Lanthascreen TR-FRET signal (raw ratio), sheet CDK9 ([1]; compound 315.521 nM): 0.01137 and 0.01786
Lanthascreen TR-FRET signal (raw ratio), sheet CDK9 ([1]; compound 3155.21 nM): 0.003916 and 0.005427
Lanthascreen TR-FRET signal (raw ratio), sheet CDK9 ([1]; compound 10002 nM): 0.004637 and 0.003497
EC50 ([2]; Supplementary Table 2, read-out: TR-FRET EC50 TR-FRET): 303 nM
TR-FRET signal ([2]; compound concentration 0.468 nM): 0.3146 and 0.2937
TR-FRET signal ([2]; compound concentration 2.16 nM): 0.327 and 0.3142
TR-FRET signal ([2]; compound concentration 3.6 nM): 0.3516 and 0.3492
TR-FRET signal ([2]; compound concentration 4.68 nM): 0.1778 and 0.177
TR-FRET signal ([2]; compound concentration 7.92001 nM): 0.4103 and 0.4025
TR-FRET signal ([2]; compound concentration 15.84 nM): 0.4987 and 0.4962
TR-FRET signal ([2]; compound concentration 21.6 nM): 0.3031 and 0.3042
TR-FRET signal ([2]; compound concentration 30.96 nM): 0.6587 and 0.6967
TR-FRET signal ([2]; compound concentration 36 nM): 0.5003 and 0.5187
TR-FRET signal ([2]; compound concentration 62.6401 nM): 0.9444 and 1.024
TR-FRET signal ([2]; compound concentration 79.2001 nM): 0.8582 and 0.8909
TR-FRET signal ([2]; compound concentration 125.28 nM): 1.324 and 1.444
TR-FRET signal ([2]; compound concentration 158.4 nM): 1.305 and 1.368
TR-FRET signal ([2]; compound concentration 244.8 nM): 1.9166 and 1.983
TR-FRET signal ([2]; compound concentration 309.6 nM): 1.882 and 1.916
TR-FRET signal ([2]; compound concentration 626.401 nM): 2.43 and 2.4997
TR-FRET signal ([2]; compound concentration 993.601 nM): 2.9527 and 2.952
TR-FRET signal ([2]; compound concentration 1252.8 nM): 2.93 and 3.011
TR-FRET signal ([2]; compound concentration 2001.6 nM): 3.382 and 3.238
TR-FRET signal ([2]; compound concentration 2448 nM): 3.265 and 3.3741
TR-FRET signal ([2]; compound concentration 9936.01 nM): 3.59 and 3.595
TR-FRET signal ([2]; compound concentration 20016 nM): 3.713 and 3.698
EC50 ([2]; in vitro complex formation, 50 nM CDK12–cyclin K, 100 nM DDB1, text and figures, read-out: TR-FRET EC50): 303 ± 16 nM
EC50 ([2]; sheet MOESM7, read-out: log TR-FRET EC50 (converted)): 303 nM
IC50 ([3]; Lanthascreen, average, Extended Data Fig. 8, read-out: CDK12 IC50): > 10000 nM
IC50 ([3]; Supplementary Table 2, read-out: Lanthascreen IC50 [nM] CDK12): > 10000 nM
Lanthascreen raw signal, sheet CDK12 ([3]; compound 1.02544 nM): 0.009993 and 0.009189
Lanthascreen raw signal, sheet CDK12 ([3]; compound 3.15521 nM): 0.007678 and 0.01017
Lanthascreen raw signal, sheet CDK12 ([3]; compound 9.46563 nM): 0.008332 and 0.008957
Lanthascreen raw signal, sheet CDK12 ([3]; compound 31.5521 nM): 0.009201 and 0.006925
Lanthascreen raw signal, sheet CDK12 ([3]; compound 99.3891 nM): 0.01004 and 0.007454
Lanthascreen raw signal, sheet CDK12 ([3]; compound 315.521 nM): 0.008681 and 0.00881
Lanthascreen raw signal, sheet CDK12 ([3]; compound 3155.21 nM): 0.008543 and 0.006433
Lanthascreen raw signal, sheet CDK12 ([3]; compound 10002 nM): 0.006174 and 0.006044
EC50 ([4]; Homo sapiens, HEK-293T, HEK293T viability, 72 h, compound alone, read-out: Cellular assays EC50): > 10000 nM
Toxicity rescue ([4]; MLN4924-mediated cytotoxicity rescue, 10 µM used where n.d.): 0%
DC50 [5]: > 10000 nM
Lanthascreen signal, sheet CDK2 ([6]; Compound 1.02544 nM): 0.01007 and 0.009144
Lanthascreen signal, sheet CDK2 ([6]; Compound 3.15521 nM): 0.0112 and 0.008273
Lanthascreen signal, sheet CDK2 ([6]; Compound 9.46563 nM): 0.0109 and 0.01003
Lanthascreen signal, sheet CDK2 ([6]; Compound 31.5521 nM): 0.009356 and 0.009077
Lanthascreen signal, sheet CDK2 ([6]; Compound 99.3891 nM): 0.01058 and 0.01018
Lanthascreen signal, sheet CDK2 ([6]; Compound 315.521 nM): 0.009946 and 0.008466
Lanthascreen signal, sheet CDK2 ([6]; Compound 3155.21 nM): 0.009117 and 0.008683
Lanthascreen signal, sheet CDK2 ([6]; Compound 10002 nM): 0.008076 and 0.006678
IC50 ([6]; Lanthascreen, average, Extended Data Fig. 8, read-out: CDK2 IC50): > 10000 nM
IC50 ([6]; Supplementary Table 2, read-out: Lanthascreen IC50 [nM] CDK2): > 10000 nM
